Measurements from patent publication US20210017295A1, “BISPECIFIC BINDING AGENTS AND USES THEREOF” (MEMORIAL SLOAN KETTERING CANCER CENTER, priority 2018, published 2021).
Like-named read-outs stand apart in the source and are kept apart here.

Test system: s.c. HER2(+) BT-474 tumors
Format: in vivo, mouse
[1] = PRIT, CA 28% w/w 70 μg, 24 h p.i., mean ± SD
[2] = no PRIT, only ~16.8 MBq (90 pmol), 24 h p.i., mean ± SEM
[3] = optimized PRIT, 1.0 h p.i., mean ± SEM
[4] = optimized PRIT, 24 h p.i., mean ± SEM
[5] = optimized PRIT, 96 h p.i., mean ± SEM
[6] = optimized PRIT, 336 h p.i., mean ± SEM
[7] = optimized PRIT, […] p.i., mean ± SEM

In the case of `Nc1ccc(CC2CN(CC(=O)[O-])CCN(CC(=O)[O-])CCN(CC(=O)[O-])CCN2CC(=O)[O-])cc1.[177Lu+3]` (centres unmarked) [^177Lu-DOTA-Bn], the “^177Lu activity in Kidneys” value [1] was 0.75 ± 0.08 % IA/g, the “^177Lu activity in Large Int.” value [1] was 0.19 ± 0.04 % IA/g and the “^177Lu activity in Liver” value [1] was 0.33 ± 0.02 % IA/g. For the same compound, the “^177Lu activity in Lungs” value [1] was 0.25 ± 0.05 % IA/g, the “^177Lu activity in Muscle” value [1] was 0.08 ± 0.02 % IA/g and the “^177Lu activity in Small Int.” value [1] was 0.07 ± 0.01 % IA/g. The “^177Lu activity in Spleen” value [1] was 0.73 ± 0.18 % IA/g, the “^177Lu activity in Stomach” value [1] was 0.05 ± 0.02 % IA/g and the “^177Lu activity in Tumor” value [1] was 6.98 ± 3.15 % IA/g. For the same compound, the “^177Lu activity in Blood” value [2] was 0.002±0.00 % IA/g, the “^177Lu activity in Kidneys” value [2] was 0.38±0.01 % IA/g and the “^177Lu activity in Liver” value [2] was 0.04 ± 0.01 % IA/g. For the same compound, the “^177Lu activity in Spleen” value [2] was 0.02 ± 0.00 % IA/g, the “^177Lu activity in Tumor” value [2] was 0.07±0.01 % IA/g and the “^177Lu activity in tumor, range” value (optimized PRIT, 1-24 h p.i.) was 5-8 % IA/g. The “Tumor-to-tissue ratio, Blood” value [3] was 10.7 ± 1.3, the “Tumor-to-tissue ratio, Bone” value [3] was 37.3 ± 6.0 and the “Tumor-to-tissue ratio, Heart” value [3] was 38.7 ± 6.7. The “Tumor-to-tissue ratio, Kidneys” value [3] was 5.7 ± 0.5, the “Tumor-to-tissue ratio, Large Int.” value [3] was 3.0 ± 0.5 and the “Tumor-to-tissue ratio, Liver” value [3] was 8.7 ± 0.9. For the same compound, the “Tumor-to-tissue ratio, Lungs” value [3] was 16.6 ± 2.3, the “Tumor-to-tissue ratio, Muscle” value [3] was 35.7 ± 3.6 and the “Tumor-to-tissue ratio, Small Int.” value [3] was 6.0 ± 1.5. The “Tumor-to-tissue ratio, Spleen” value [3] was 44.9 ± 6.3, the “Tumor-to-tissue ratio, Stomach” value [3] was 17.8 ± 4.6 and the “^177Lu activity in Blood” value [3] was 0.62 ± 0.06 % IA/g. For the same compound, the “^177Lu activity in Bone” value [3] was 0.18 ± 0.03 % IA/g, the “^177Lu activity in Heart” value [3] was 0.17 ± 0.03 % IA/g and the “^177Lu activity in Kidneys” value [3] was 1.17 ± 0.02 % IA/g. The “^177Lu activity in Large Int.” value [3] was 2.22 ± 0.37 % IA/g, the “^177Lu activity in Liver” value [3] was 0.76 ± 0.06 % IA/g and the “^177Lu activity in Lungs” value [3] was 0.40 ± 0.05 % IA/g. The “^177Lu activity in Muscle” value [3] was 0.19 ± 0.01 % IA/g, the “^177Lu activity in Small Int.” value [3] was 1.11 ± 0.27 % IA/g and the “^177Lu activity in Spleen” value [3] was 0.15 ± 0.02 % IA/g. The “^177Lu activity in Stomach” value [3] was 0.37 ± 0.09 % IA/g, the “^177Lu activity in Tumor” value [3] was 6.65 ± 0.46 % IA/g and the “Tumor-to-tissue ratio, Blood” value [4] was 26.7±9.0. The “Tumor-to-tissue ratio, Bone” value [4] was 189.6 ± 46.7, the “Tumor-to-tissue ratio, Heart” value [4] was 105.3 ± 27.7 and the “Tumor-to-tissue ratio, Kidneys” value [4] was 10.4±1.3. For the same compound, the “Tumor-to-tissue ratio, Large Int.” value [4] was 41.7 ± 5.4, the “Tumor-to-tissue ratio, Liver” value [4] was 28.3 ± 8.3 and the “Tumor-to-tissue ratio, Lungs” value [4] was 38.7 ± 10.0. For the same compound, the “Tumor-to-tissue ratio, Muscle” value [4] was 118.5 ± 26.8, the “Tumor-to-tissue ratio, Small Int.” value [4] was 140.4 ± 22.8 and the “Tumor-to-tissue ratio, Spleen” value [4] was 12.6 ± 4.5. For the same compound, the “Tumor-to-tissue ratio, Stomach” value [4] was 122.3 ± 17.1, the “Tumor-to-tissue ratio, Blood” value [5] was 63.6 ± 12.2 and the “Tumor-to-tissue ratio, Bone” value [5] was 6.0 ± 1.7. The “Tumor-to-tissue ratio, Heart” value [5] was 42.4 ± 10.3, the “Tumor-to-tissue ratio, Kidneys” value [5] was 8.4 ± 1.7 and the “Tumor-to-tissue ratio, Large Int.” value [5] was 31.8 ± 8.6. The “Tumor-to-tissue ratio, Liver” value [5] was 10.1 ± 2.6, the “Tumor-to-tissue ratio, Lungs” value [5] was 34.7 ± 8.8 and the “Tumor-to-tissue ratio, Muscle” value [5] was 22.5 ± 8.7. For the same compound, the “Tumor-to-tissue ratio, Small Int.” value [5] was 44.0 ± 12.6, the “Tumor-to-tissue ratio, Spleen” value [5] was 12.9 ± 2.9 and the “Tumor-to-tissue ratio, Stomach” value [5] was 57.3 ± 13.7. The “^177Lu activity in Blood” value [5] was 0.04 ± 0.00 % IA/g, the “^177Lu activity in Bone” value [5] was 0.38 ± 0.09 % IA/g and the “^177Lu activity in Heart” value [5] was 0.05 ± 0.01 % IA/g. For the same compound, the “^177Lu activity in Kidneys” value [5] was 0.27 ± 0.03 % IA/g, the “^177Lu activity in Large Int.” value [5] was 0.07 ± 0.01 % IA/g and the “^177Lu activity in Liver” value [5] was 0.23 ± 0.04 % IA/g. For the same compound, the “^177Lu activity in Lungs” value [5] was 0.07 ± 0.01 % IA/g, the “^177Lu activity in Muscle” value [5] was 0.10 ± 0.03 % IA/g and the “^177Lu activity in Small Int.” value [5] was 0.05 ± 0.01 % IA/g. For the same compound, the “^177Lu activity in Spleen” value [5] was 0.18 ± 0.02 % IA/g, the “^177Lu activity in Stomach” value [5] was 0.04 ± 0.01 % IA/g and the “^177Lu activity in Tumor” value [5] was 2.29±0.41 % IA/g. For the same compound, the “Tumor-to-tissue ratio, Blood” value [6] was 160.8 ± 30.3, the “Tumor-to-tissue ratio, Bone” value [6] was 10.0 ± 3.6 and the “Tumor-to-tissue ratio, Heart” value [6] was 37.8 ± 7.7. For the same compound, the “Tumor-to-tissue ratio, Kidneys” value [6] was 3.8 ± 0.9, the “Tumor-to-tissue ratio, Large Int.” value [6] was 75.6 ± 26.4 and the “Tumor-to-tissue ratio, Liver” value [6] was 3.7 ± 1.0. The “Tumor-to-tissue ratio, Lungs” value [6] was 29.2 ± 8.2, the “Tumor-to-tissue ratio, Muscle” value [6] was 64.3 ± 18.4 and the “Tumor-to-tissue ratio, Small Int.” value [6] was 116.9 ± 30.0. For the same compound, the “Tumor-to-tissue ratio, Spleen” value [6] was 3.5 ± 0.9, the “Tumor-to-tissue ratio, Stomach” value [6] was 51.4 ± 12.4 and the “^177Lu activity in Blood” value [6] was 0.002 ± 0.00 % IA/g. For the same compound, the “^177Lu activity in Bone” value [6] was 0.03 ± 0.01 % IA/g, the “^177Lu activity in Heart” value [6] was 0.01 ± 0.00 % IA/g and the “^177Lu activity in Kidneys” value [6] was 0.08 ± 0.01 % IA/g. For the same compound, the “^177Lu activity in Large Int.” value [6] was 0.004 ± 0.00 % IA/g, the “^177Lu activity in Liver” value [6] was 0.09 ± 0.02 % IA/g and the “^177Lu activity in Lungs” value [6] was 0.01 ± 0.00 % IA/g. The “^177Lu activity in Muscle” value [6] was 0.01 ± 0.00 % IA/g, the “^177Lu activity in Small Int.” value [6] was 0.003 ± 0.00 % IA/g and the “^177Lu activity in Spleen” value [6] was 0.09 ± 0.02 % IA/g. For the same compound, the “^177Lu activity in Stomach” value [6] was 0.01 ± 0.00 % IA/g, the “^177Lu activity in Tumor” value [6] was 0.32±0.06 % IA/g and the “approximate tumor clearance half-life” value (optimized PRIT, R^2=0.894) was about 38.6 h. The “Tumor-to-tissue ratio, Blood” value [7] was 12.1 ± 1.5, the “Tumor-to-tissue ratio, Bone” value [7] was 37.5 ± 4.3 and the “Tumor-to-tissue ratio, Heart” value [7] was 37.5 ± 5.2. The “Tumor-to-tissue ratio, Kidneys” value [7] was 5.2 ± 0.5, the “Tumor-to-tissue ratio, Large Int.” value [7] was 1.6 ± 0.3 and the “Tumor-to-tissue ratio, Liver” value [7] was 12.6 ± 1.6. For the same compound, the “Tumor-to-tissue ratio, Lungs” value [7] was 13.5 ± 1.6, the “Tumor-to-tissue ratio, Muscle” value [7] was 25.8 ± 5.1 and the “Tumor-to-tissue ratio, Small Int.” value [7] was 10.6 ± 3.7. The “Tumor-to-tissue ratio, Spleen” value [7] was 14.9 ± 1.8, the “Tumor-to-tissue ratio, Stomach” value [7] was 23.6 ± 7.7 and the “^177Lu activity in Blood” value [7] was 0.41 ± 0.04 % IA/g. The “^177Lu activity in Bone” value [7] was 0.13 ± 0.01 % IA/g, the “^177Lu activity in Heart” value [7] was 0.13 ± 0.02 % IA/g and the “^177Lu activity in Kidneys” value [7] was 0.95 ± 0.05 % IA/g. The “^177Lu activity in Large Int.” value [7] was 3.18 ± 0.52 % IA/g, the “^177Lu activity in Liver” value [7] was 0.39 ± 0.04 % IA/g and the “^177Lu activity in Lungs” value [7] was 0.37 ± 0.03 % IA/g. For the same compound, the “^177Lu activity in Muscle” value [7] was 0.19 ± 0.04 % IA/g, the “^177Lu activity in Small Int.” value [7] was 0.47 ± 0.16 % IA/g and the “^177Lu activity in Spleen” value [7] was 0.33 ± 0.03 % IA/g. For the same compound, the “^177Lu activity in Stomach” value [7] was 0.21 ± 0.07 % IA/g and the “^177Lu activity in Tumor” value [7] was 4.95 ± 0.34 % IA/g.
